# According to PMC7413254 (Nature Communications, 2020):
# Like-named read-outs stand apart in the source and are kept apart here.
# Tests used:
# non-expressing oocytes [1] = experiment: cells; type: cell-based, Xenopus laevis; conditions: non-expressing oocytes, total [3H]CQ transport, normalised to the oocyte type control
# Procedure, shortened: (§1)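 Assay buffer ND96 (10 mM MES, 10 mM Tris-base) held at pH 5.5 to mimic vacuole lumen; uptake measured inward from this acidic medium over 1.5 h at 27.5 °C.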
# PfCRT^3D7 [2] = target: T1, PfCRT^3D7 (Plasmodium falciparum, UniProt Q8IBZ9); experiment: cell-based; type: cell-based; conditions: PfCRT3D7 oocytes, total [3H]CQ transport, normalised to the oocyte type control
# Excerpt: The orientation of PfCRT in the parasite’s DV membrane, and also in the oocyte plasma membrane, is such that its N- and C-termini extend into the cytosol. The oocytes were suspended in a reaction buffer adjusted to pH 5.5 to mimic the pH of the DV lumen[1],[2]. In this scenario, the transport of a substrate via PfCRT from the acidic extracellular solution into the oocyte cytosol[15] is analogous to the parasite’s PfCRT-mediated efflux of a substrate from the acidic DV and into the cytosol. Unless specified otherwise, this is the direction in which substrate transport was measured in the oocyte assays.
# Unless specified otherwise, the transport assays were conducted over 1.5 h at 27.5 °C and the reaction buffer was ND96 (96 mM NaCl, 2 mM KCl, 1 mM MgCl2, 1.8 mM CaCl2, 10 mM MES and 10 mM Tris-base) at pH 5.5.
# Ten oocytes were washed twice with the relevant ND96 buffer. […] The assay was terminated by removing the reaction buffer and washing the oocytes with ice-cold ND96 buffer. The oocytes were lysed in 10% (w/v) sodium dodecyl sulfate (SDS) and the radioactivity accumulated within each oocyte was measured with a MicroBeta^2 microplate liquid scintillation analyser (PerkinElmer).
# At least four independent experiments were performed (on different days and using oocytes from different frogs), and within each experiment measurements were made from ten oocytes per treatment.
# PfCRT^Dd2 [3] = target: T2, PfCRT^Dd2 (Plasmodium falciparum, UniProt Q9N623, A220S/I356T/K76T/M74I/N326S/N75E/Q271E/R371I); experiment: [3H]CQ uptake into Xenopus oocytes, cis-inhibition by unlabelled solute; type: cell-based; conditions: PfCRTDd2 oocytes, background [3H]CQ accumulation subtracted, normalised to oocyte type control
# Procedure, shortened: as §1
# PfCRT^Ecu1110 [4] = target: T3, PfCRT^Ecu1110 (Plasmodium falciparum, UniProt Q9N623, A220S/I356L/K76T/N326D); experiment: as above; type: cell-based; conditions: for Uptake of [3H]CQ (% PfCRTEcu1110 control), cis-inhibition / PfCRT-mediated [3H]CQ transport, cis-inhibition (% PfCRTEcu1110 control): PfCRTEcu1110 oocytes; for Uptake of [3H]CQ (% PfCRTEcu1110 control), cis-inhibition: total [3H]CQ transport, normalised to the oocyte type control; for PfCRT-mediated [3H]CQ transport, cis-inhibition (% PfCRTEcu1110 control): background [3H]CQ accumulation subtracted, normalised to oocyte type control
# Procedure, shortened: as §1
# non-expressing oocytes [5] = type: cell-based, Xenopus laevis; conditions: non-expressing oocytes, total [3H]CQ transport, normalised to the oocyte type control
# Procedure, shortened: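 Oocytes (ten per treatment, ≥4 independent frogs/days) were preloaded by injecting VF-6 in 25 nL ND96 at pH 5.0, 5.5, 6.0 or 7.0, or Na^+-free choline buffer, then uptake run 1.5 h, 27.5 °C, ND96 pH 5.5 by default. Internal concentrations assumed ~400 nL oocyte volume.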
# PfCRT^3D7 [6] = target: T1, PfCRT^3D7; experiment: cell-based; type: cell-based; conditions: PfCRT3D7 oocytes; for Uptake of [3H]CQ (% PfCRT3D7 control), trans-stimulation: total [3H]CQ transport, normalised to the oocyte type control; for PfCRT-mediated [3H]CQ transport, trans-stimulation (% PfCRT3D7 control): normalised to oocyte type control
# Procedure, shortened: (§2)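 Transport measured in Xenopus oocytes expressing the transporters, 1.5 h at 27.5 °C in ND96 pH 5.5 unless noted. For trans-stimulation, VF-6 injected in 25 nL ND96 at pH 5.0–7.0 or Na^+-free (choline) buffer; intracellular levels based on ~400 nL oocyte volume. Ten oocytes per treatment, ≥4 experiments.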
# PfCRT^Dd2 [7] = target: T2, PfCRT^Dd2; experiment: cell-based; type: cell-based; conditions: for Uptake of [3H]CQ (% PfCRTDd2 control), trans-stimulation / PfCRT-mediated [3H]CQ transport, trans-stimulation (% PfCRTDd2 control): PfCRTDd2 oocytes; for Uptake of [3H]CQ (% PfCRTDd2 control), trans-stimulation: total [3H]CQ transport, normalised to the oocyte type control; for PfCRT-mediated [3H]CQ transport, trans-stimulation (% PfCRTDd2 control): normalised to oocyte type control; for [3H]CQ transport (% PfCRTDd2 control), trans-stimulation, PfCRTDd2: PfCRT-mediated component (background subtracted), mean ± SEM, SEM
# Procedure, shortened: as §2
# PfCRT^Ecu1110 [8] = target: T3, PfCRT^Ecu1110; experiment: cell-based; type: cell-based; conditions: for Uptake of [3H]CQ (% PfCRTEcu1110 control), trans-stimulation / PfCRT-mediated [3H]CQ transport, trans-stimulation (% PfCRTEcu1110 control): PfCRTEcu1110 oocytes; for Uptake of [3H]CQ (% PfCRTEcu1110 control), trans-stimulation: total [3H]CQ transport, normalised to the oocyte type control; for PfCRT-mediated [3H]CQ transport, trans-stimulation (% PfCRTEcu1110 control): normalised to oocyte type control; for [3H]CQ transport (% PfCRTDd2 control), trans-stimulation, PfCRTEcu1110: PfCRT-mediated component (background subtracted), sheet title says normalised to PfCRTDd2 control, mean ± SEM, SEM
# Procedure, shortened: as §2
# PfNT1 = target: T4, PfNT1 (Plasmodium falciparum, UniProt Q8IDM6); experiment: cell-based; type: cell-based; conditions: PfNT1 oocytes, total [3H]CQ transport, normalised to the oocyte type control
# T4 construct: expressed in transfected cells; host or cells: Xenopus laevis oocytes (stage V-VI), cRNA-injected
# Procedure, shortened: as §2
# [9] = [test solute]i = 45 mM (30 mM for some solutes due to solubility)
# [10] = [test solute]i = 5 mM (intracellular)
# [11] = [test solute]i = 45 mM (intracellular; 30 mM for some solutes due to solubility)
# [12] = [test solute]i = 5 mM (injected)
# T3 sequence (Q9N623 whole entry A220S/I356L/K76T/N326D): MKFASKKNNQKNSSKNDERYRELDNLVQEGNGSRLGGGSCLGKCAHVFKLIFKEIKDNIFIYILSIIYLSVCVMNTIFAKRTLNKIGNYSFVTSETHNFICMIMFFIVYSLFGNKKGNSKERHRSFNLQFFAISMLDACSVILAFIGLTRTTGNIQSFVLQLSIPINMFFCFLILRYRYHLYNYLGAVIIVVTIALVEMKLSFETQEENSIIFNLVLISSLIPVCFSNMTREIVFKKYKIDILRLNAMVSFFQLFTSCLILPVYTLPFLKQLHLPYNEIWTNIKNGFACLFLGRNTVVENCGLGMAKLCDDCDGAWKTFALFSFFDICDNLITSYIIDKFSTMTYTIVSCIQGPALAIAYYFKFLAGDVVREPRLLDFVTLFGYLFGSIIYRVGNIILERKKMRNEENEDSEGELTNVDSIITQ
# T2 sequence (Q9N623 whole entry A220S/I356T/K76T/M74I/N326S/N75E/Q271E/R371I): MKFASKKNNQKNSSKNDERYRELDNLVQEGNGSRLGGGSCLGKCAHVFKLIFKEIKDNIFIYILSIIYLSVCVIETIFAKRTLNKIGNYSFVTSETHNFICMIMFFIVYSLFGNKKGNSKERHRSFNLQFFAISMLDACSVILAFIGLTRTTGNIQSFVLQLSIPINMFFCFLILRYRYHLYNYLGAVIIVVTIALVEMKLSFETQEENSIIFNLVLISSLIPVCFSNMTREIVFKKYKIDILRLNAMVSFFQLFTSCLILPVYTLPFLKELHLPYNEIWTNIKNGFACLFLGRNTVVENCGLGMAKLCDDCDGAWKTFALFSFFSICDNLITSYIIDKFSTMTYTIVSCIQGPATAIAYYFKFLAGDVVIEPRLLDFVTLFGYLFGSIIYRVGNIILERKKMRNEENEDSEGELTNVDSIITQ
# T1 sequence (Q8IBZ9 59-398): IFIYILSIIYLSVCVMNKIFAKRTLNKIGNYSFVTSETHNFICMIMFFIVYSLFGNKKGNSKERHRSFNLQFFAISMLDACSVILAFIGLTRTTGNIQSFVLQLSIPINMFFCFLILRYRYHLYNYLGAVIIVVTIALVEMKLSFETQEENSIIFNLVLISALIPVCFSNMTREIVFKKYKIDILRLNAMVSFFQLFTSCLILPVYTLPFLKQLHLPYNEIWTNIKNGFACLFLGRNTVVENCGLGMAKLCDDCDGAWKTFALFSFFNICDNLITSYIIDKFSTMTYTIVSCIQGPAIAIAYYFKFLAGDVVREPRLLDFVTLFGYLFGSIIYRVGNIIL
# T4 sequence (Q8IDM6 whole entry): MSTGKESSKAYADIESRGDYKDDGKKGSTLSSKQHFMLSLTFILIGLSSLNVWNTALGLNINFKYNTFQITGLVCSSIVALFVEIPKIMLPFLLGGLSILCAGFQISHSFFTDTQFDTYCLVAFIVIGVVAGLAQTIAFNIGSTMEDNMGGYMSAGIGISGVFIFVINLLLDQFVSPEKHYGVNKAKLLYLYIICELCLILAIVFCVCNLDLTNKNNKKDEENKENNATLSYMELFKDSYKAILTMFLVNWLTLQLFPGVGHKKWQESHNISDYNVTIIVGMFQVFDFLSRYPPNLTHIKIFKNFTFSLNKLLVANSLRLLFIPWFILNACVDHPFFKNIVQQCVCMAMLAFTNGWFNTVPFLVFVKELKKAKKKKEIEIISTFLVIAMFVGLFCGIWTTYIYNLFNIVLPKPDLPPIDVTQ
substance,measurement,setting,value
PPVQ [PQ-4],"Uptake of [3H]CQ (% non-expressing oocyte control), cis-inhibition",non-expressing oocytes [1]; [test solute] = 1 mM,99 ± 5.3 % non-expressing oocyte control
same,"Uptake of [3H]CQ (% non-expressing oocyte control), cis-inhibition",non-expressing oocytes [1]; [test solute] = 2 mM,100 ± 3.7 % non-expressing oocyte control
same,"Uptake of [3H]CQ (% PfCRT3D7 control), cis-inhibition",PfCRT^3D7 [2]; [test solute] = 0.5 mM,99 ± 3.9 % PfCRT3D7 control
same,"Uptake of [3H]CQ (% PfCRT3D7 control), cis-inhibition",PfCRT^3D7 [2]; [test solute] = 1 mM,99 ± 6.3 % PfCRT3D7 control
same,"Uptake of [3H]CQ (% PfCRT3D7 control), cis-inhibition",PfCRT^3D7 [2]; [test solute] = 2 mM,99 ± 5.3 % PfCRT3D7 control
same,"PfCRT-mediated [3H]CQ transport, cis-inhibition (% PfCRTDd2 control)",PfCRT^Dd2 [3]; [test solute] = 0.5 mM,68 ± 3.7 % PfCRTDd2 control
same,"PfCRT-mediated [3H]CQ transport, cis-inhibition (% PfCRTDd2 control)",PfCRT^Dd2 [3]; [test solute] = 1 mM,59 ± 2.1 % PfCRTDd2 control
same,"PfCRT-mediated [3H]CQ transport, cis-inhibition (% PfCRTDd2 control)",PfCRT^Dd2 [3]; [test solute] = 2 mM,37 ± 2.0 % PfCRTDd2 control
same,"Uptake of [3H]CQ (% PfCRTEcu1110 control), cis-inhibition",PfCRT^Ecu1110 [4]; [test solute] = 0.5 mM,67 ± 2.1 % PfCRTEcu1110 control
same,"Uptake of [3H]CQ (% PfCRTEcu1110 control), cis-inhibition",PfCRT^Ecu1110 [4]; [test solute] = 1 mM,56 ± 2.8 % PfCRTEcu1110 control
same,"Uptake of [3H]CQ (% PfCRTEcu1110 control), cis-inhibition",PfCRT^Ecu1110 [4]; [test solute] = 2 mM,48 ± 4.8 % PfCRTEcu1110 control
same,"PfCRT-mediated [3H]CQ transport, cis-inhibition (% PfCRTEcu1110 control)",PfCRT^Ecu1110 [4]; [test solute] = 0.5 mM,61 ± 3.1 % PfCRTEcu1110 control
same,"PfCRT-mediated [3H]CQ transport, cis-inhibition (% PfCRTEcu1110 control)",PfCRT^Ecu1110 [4]; [test solute] = 1 mM,51 ± 1.3 % PfCRTEcu1110 control
same,"PfCRT-mediated [3H]CQ transport, cis-inhibition (% PfCRTEcu1110 control)",PfCRT^Ecu1110 [4]; [test solute] = 2 mM,41 ± 3.2 % PfCRTEcu1110 control
same,"[3H]CQ transport (% PfCRTEcu1110 control), cis-inhibition, PfCRTEcu1110","PfCRT^Ecu1110 [4]; cis-inhibition, [test solute] = 2 mM, PfCRT-mediated component (background subtracted), sheet title says normalised to PfCRTDd2 control, mean ± SEM, SEM",13 ± 0.6 % PfCRTEcu1110 control
same,"Uptake of [3H]CQ (% non-expressing oocyte control), trans-stimulation",non-expressing oocytes [5]; [test solute]i = 5 mM,99 ± 3.4 % non-expressing oocyte control
same,"Uptake of [3H]CQ (% non-expressing oocyte control), trans-stimulation",non-expressing oocytes [5]; [9],100 ± 2.7 % non-expressing oocyte control
same,"Uptake of [3H]CQ (% PfCRT3D7 control), trans-stimulation",PfCRT^3D7 [6]; [test solute]i = 5 mM,134 ± 2.5 % PfCRT3D7 control
same,"Uptake of [3H]CQ (% PfCRT3D7 control), trans-stimulation",PfCRT^3D7 [6]; [9],165 ± 4.2 % PfCRT3D7 control
same,"PfCRT-mediated [3H]CQ transport, trans-stimulation (% PfCRT3D7 control)",PfCRT^3D7 [6]; [10],129 ± 2.1 % PfCRT3D7 control
same,"PfCRT-mediated [3H]CQ transport, trans-stimulation (% PfCRT3D7 control)",PfCRT^3D7 [6]; [11],159 ± 5.2 % PfCRT3D7 control
same,"Uptake of [3H]CQ (% PfCRTDd2 control), trans-stimulation",PfCRT^Dd2 [7]; [test solute]i = 5 mM,100 ± 3.2 % PfCRTDd2 control
same,"Uptake of [3H]CQ (% PfCRTDd2 control), trans-stimulation",PfCRT^Dd2 [7]; [9],115 ± 2.9 % PfCRTDd2 control
same,"PfCRT-mediated [3H]CQ transport, trans-stimulation (% PfCRTDd2 control)",PfCRT^Dd2 [7]; [10],98 ± 4.2 % PfCRTDd2 control
same,"PfCRT-mediated [3H]CQ transport, trans-stimulation (% PfCRTDd2 control)",PfCRT^Dd2 [7]; [11],110 ± 1.1 % PfCRTDd2 control
same,"[3H]CQ transport (% PfCRTDd2 control), trans-stimulation, PfCRTDd2",PfCRT^Dd2 [7]; [12],98 ± 4.2 % PfCRTDd2 control
same,"[3H]CQ transport (% PfCRTDd2 control), trans-stimulation, PfCRTDd2",PfCRT^Dd2 [7]; [9],110 ± 1.1 % PfCRTDd2 control
same,"Uptake of [3H]CQ (% PfCRTEcu1110 control), trans-stimulation",PfCRT^Ecu1110 [8]; [test solute]i = 5 mM,124 ± 2.9 % PfCRTEcu1110 control
same,"Uptake of [3H]CQ (% PfCRTEcu1110 control), trans-stimulation",PfCRT^Ecu1110 [8]; [9],138 ± 3.2 % PfCRTEcu1110 control
same,"PfCRT-mediated [3H]CQ transport, trans-stimulation (% PfCRTEcu1110 control)",PfCRT^Ecu1110 [8]; [10],120 ± 3.2 % PfCRTEcu1110 control
same,"PfCRT-mediated [3H]CQ transport, trans-stimulation (% PfCRTEcu1110 control)",PfCRT^Ecu1110 [8]; [11],132 ± 1.1 % PfCRTEcu1110 control
same,"[3H]CQ transport (% PfCRTDd2 control), trans-stimulation, PfCRTEcu1110",PfCRT^Ecu1110 [8]; [12],36 ± 1.3 % PfCRTEcu1110 control
same,"[3H]CQ transport (% PfCRTDd2 control), trans-stimulation, PfCRTEcu1110",PfCRT^Ecu1110 [8]; [9],40 ± 1.3 % PfCRTEcu1110 control
same,"Uptake of [3H]CQ (% PfNT1 control), trans-stimulation",PfNT1; [test solute]i = 5 mM,100 ± 2.5 % PfNT1 control
same,"Uptake of [3H]CQ (% PfNT1 control), trans-stimulation",PfNT1; [9],99 ± 3.2 % PfNT1 control
